Measured values reported in ChEMBL document CHEMBL1201862, “PubChem BioAssay data set” (2004).
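Grown in 96-well plates, cells were treated for 48 hours with each compound at five concentrations. Insufficient inhibition: endpoint recorded as highest concentration tested. GI50 = concentration required for 50% inhibition of growth.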 Activity calls are given as the source filed them. No stated cut-off is given here; in the data, active = GI50 up to about 1.1 µM and inactive = higher.

Assays:
Test in all cases: NCI-60 cell line screen, 48 h
786-0 = tested on: 786-0
A498 = tested on: A498
A549 = tested on: A549
ACHN = tested on: ACHN
CAKI-1 = tested on: CAKI-1
CCRF-CEM = tested on: CCRF-CEM
COLO 205 = tested on: COLO 205
DLD-1 = tested on: DLD-1
DMS-114 = tested on: DMS-114
DMS-273 = tested on: DMS-273
EKVX = tested on: EKVX
HCC 2998 = tested on: HCC 2998
HCT-116 = tested on: HCT-116
HCT-15 = tested on: HCT-15
HL-60 = tested on: HL-60
HOP-18 = tested on: HOP-18
HOP-62 = tested on: HOP-62
HT-29 = tested on: HT-29
IGROV-1 = tested on: IGROV-1
K562 = tested on: K562
KM-20L2 = tested on: KM-20L2
KM12 = tested on: KM12
LOX IMVI = tested on: LOX IMVI
LXFL 529 = tested on: LXFL 529
M14 = tested on: M14
M19-MEL = tested on: M19-MEL
MOLT-4 = tested on: MOLT-4
Malme-3M = tested on: Malme-3M
NCI-H226 = tested on: NCI-H226
NCI-H23 = tested on: NCI-H23
NCI-H460 = tested on: NCI-H460
NCI-H522 = tested on: NCI-H522
OVCAR-3 = tested on: OVCAR-3
OVCAR-4 = tested on: OVCAR-4
OVCAR-5 = tested on: OVCAR-5
OVCAR-8 = tested on: OVCAR-8
RPMI-8226 = tested on: RPMI-8226
SF-268 = tested on: SF-268
SF-295 = tested on: SF-295
SK-MEL-28 = tested on: SK-MEL-28
SK-MEL-2 = tested on: SK-MEL-2
SK-MEL-5 = tested on: SK-MEL-5
SK-OV-3 = tested on: SK-OV-3
SN12C = tested on: SN12C
SNB-19 = tested on: SNB-19
SNB-75 = tested on: SNB-75
SW-620 = tested on: SW-620
TK-10 = tested on: TK-10
U-251 = tested on: U-251
UACC-257 = tested on: UACC-257
UACC-62 = tested on: UACC-62
UO-31 = tested on: UO-31
HOP-92 = tested on: HOP-92
RXF 393 = tested on: RXF 393
SF-539 = tested on: SF-539
SNB-78 = tested on: SNB-78

**Q.** With `CSC1=NC=CCN1C` as the molecule, how does the GI50 (786-0) read?
**A.** > 100 µM (inactive)

**Q.** And the GI50 (A498)?
**A.** > 100 µM (inactive)

**Q.** What about the GI50 (A549) of the same molecule?
**A.** > 100 µM (inactive)

**Q.** And the GI50 (ACHN)?
**A.** > 100 µM (inactive)

**Q.** What about the GI50 (CAKI-1) of the same molecule?
**A.** > 100 µM (inactive)

**Q.** What about the GI50 (CCRF-CEM) of the same molecule?
**A.** > 100 µM (inactive)

**Q.** What about the GI50 (COLO 205) of the same molecule?
**A.** > 100 µM (inactive)

**Q.** What about the GI50 (DLD-1) of the same molecule?
**A.** > 100 µM (inactive)

**Q.** What about the GI50 (DMS-114) of the same molecule?
**A.** > 100 µM (inactive)

**Q.** What about the GI50 (DMS-273) of the same molecule?
**A.** > 100 µM (inactive)

**Q.** And the GI50 (EKVX)?
**A.** > 100 µM (inactive)

**Q.** What about the GI50 (HCC 2998) of the same molecule?
**A.** > 100 µM (inactive)

**Q.** What about the GI50 (HCT-116) of the same molecule?
**A.** > 100 µM (inactive)

**Q.** And the GI50 (HCT-15)?
**A.** > 100 µM

**Q.** And the GI50 (HL-60)?
**A.** > 100 µM (inactive)

**Q.** And the GI50 (HOP-18)?
**A.** > 100 µM (inactive)

**Q.** What about the GI50 (HOP-62) of the same molecule?
**A.** > 100 µM (inactive)

**Q.** And the GI50 (HT-29)?
**A.** > 100 µM (inactive)

**Q.** What about the GI50 (IGROV-1) of the same molecule?
**A.** > 100 µM (inactive)

**Q.** What about the GI50 (K562) of the same molecule?
**A.** > 100 µM (inactive)

**Q.** And the GI50 (KM-20L2)?
**A.** > 100 µM (inactive)

**Q.** What about the GI50 (KM12) of the same molecule?
**A.** > 100 µM (inactive)

**Q.** And the GI50 (LOX IMVI)?
**A.** > 100 µM (inactive)

**Q.** And the GI50 (LXFL 529)?
**A.** > 100 µM (inactive)

**Q.** And the GI50 (M14)?
**A.** > 100 µM (inactive)

**Q.** And the GI50 (M19-MEL)?
**A.** > 100 µM (inactive)

**Q.** And the GI50 (MOLT-4)?
**A.** > 100 µM (inactive)

**Q.** What about the GI50 (Malme-3M) of the same molecule?
**A.** > 100 µM (inactive)

**Q.** And the GI50 (NCI-H226)?
**A.** > 100 µM (inactive)

**Q.** And the GI50 (NCI-H23)?
**A.** > 100 µM (inactive)

**Q.** And the GI50 (NCI-H460)?
**A.** > 100 µM (inactive)

**Q.** And the GI50 (NCI-H522)?
**A.** > 100 µM (inactive)

**Q.** What about the GI50 (OVCAR-3) of the same molecule?
**A.** > 100 µM (inactive)

**Q.** And the GI50 (OVCAR-4)?
**A.** > 100 µM (inactive)

**Q.** What about the GI50 (OVCAR-5) of the same molecule?
**A.** > 100 µM (inactive)

**Q.** And the GI50 (OVCAR-8)?
**A.** > 100 µM (inactive)

**Q.** And the GI50 (RPMI-8226)?
**A.** > 100 µM (inactive)

**Q.** And the GI50 (SF-268)?
**A.** > 100 µM (inactive)

**Q.** What about the GI50 (SF-295) of the same molecule?
**A.** > 100 µM (inactive)

**Q.** What about the GI50 (SK-MEL-28) of the same molecule?
**A.** > 100 µM (inactive)

**Q.** What about the GI50 (SK-MEL-2) of the same molecule?
**A.** > 100 µM (inactive)

**Q.** And the GI50 (SK-MEL-5)?
**A.** > 100 µM (inactive)

**Q.** And the GI50 (SK-OV-3)?
**A.** > 100 µM (inactive)

**Q.** What about the GI50 (SN12C) of the same molecule?
**A.** > 100 µM (inactive)

**Q.** What about the GI50 (SNB-19) of the same molecule?
**A.** > 100 µM (inactive)

**Q.** What about the GI50 (SNB-75) of the same molecule?
**A.** > 100 µM (inactive)

**Q.** And the GI50 (SW-620)?
**A.** > 100 µM (inactive)

**Q.** What about the GI50 (TK-10) of the same molecule?
**A.** > 100 µM (inactive)

**Q.** What about the GI50 (U-251) of the same molecule?
**A.** > 100 µM (inactive)

**Q.** What about the GI50 (UACC-257) of the same molecule?
**A.** > 100 µM (inactive)

**Q.** What about the GI50 (UACC-62) of the same molecule?
**A.** > 100 µM (inactive)

**Q.** And the GI50 (UO-31)?
**A.** > 100 µM (inactive)

**Q.** Which results are given for `CCCCOP(=O)(OCCCC)/C(C#N)=C/c1ccco1`?
**A.** GI50 (A498): 77.8 µM (inactive); GI50 (ACHN): 95.7 µM (inactive); GI50 (CCRF-CEM): 12.4 µM (inactive); GI50 (COLO 205): > 100 µM (inactive); GI50 (DMS-114): 64.9 µM (inactive); GI50 (HCT-116): > 100 µM (inactive); GI50 (HL-60): 22.8 µM (inactive); GI50 (HOP-62): > 100 µM (inactive); GI50 (HOP-92): 45.3 µM (inactive); GI50 (HT-29): > 100 µM (inactive); GI50 (IGROV-1): > 100 µM (inactive); GI50 (KM-20L2): > 100 µM (inactive); GI50 (KM12): 52.6 µM (inactive); GI50 (LXFL 529): > 100 µM (inactive); GI50 (M14): > 100 µM (inactive); GI50 (M19-MEL): > 100 µM (inactive); GI50 (Malme-3M): 94.2 µM (inactive); GI50 (NCI-H23): > 100 µM (inactive); GI50 (NCI-H460): > 100 µM (inactive); GI50 (OVCAR-3): 34.7 µM (inactive); GI50 (OVCAR-4): 91.6 µM (inactive); GI50 (OVCAR-5): > 100 µM (inactive); GI50 (RPMI-8226): 45.2 µM (inactive); GI50 (RXF 393): 82.8 µM (inactive); GI50 (SF-268): 45.2 µM (inactive); GI50 (SF-295): 51.3 µM (inactive); GI50 (SF-539): > 100 µM (inactive); GI50 (SK-MEL-28): > 100 µM (inactive); GI50 (SK-MEL-2): > 100 µM (inactive); GI50 (SK-OV-3): > 100 µM (inactive); GI50 (SNB-19): 94.6 µM (inactive); GI50 (SNB-75): 27.2 µM (inactive); GI50 (SNB-78): 43.9 µM (inactive); GI50 (U-251): > 100 µM (inactive); GI50 (UACC-257): 40.1 µM (inactive); GI50 (UACC-62): > 100 µM (inactive); GI50 (UO-31): 25.8 µM (inactive)
